In patent US20110183978A1, “Phenylpyri(mi)dinylazoles” (Bayer CropScience AG, priority 2009, published 2011):
Counter-ions that a name gives are not always drawn. Like-named read-outs stand apart in the source and are kept apart here.

Columns and labels:
Pyricularia grisea = assay type: in vivo; conditions: 500 ppm; rice plants sprayed 24 hours before inoculation; scored after 6 days
Peronospora parasitica = test: Example A: in vivo test on Peronospora parasitica (downy mildew on white cabbage); conditions: Hyaloperonospora parasitica, 120 h, cabbage plants sprayed 24 hours before inoculation, scored after 5 days, read-out: % Wirkungsgrad
How it was run: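 Protective spray test: inoculation with 50,000 spores/ml P. parasitica suspension followed 24 h after compound application to cotyledon-stage cabbage (variety Eminence). Plants kept moist at about 20 °C for 5 days and then rated versus controls sprayed without active substance.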

Sphaerotheca fuliginea [1] = test: Example D: in vivo test on Sphaerotheca fuliginea (powdery mildew on cucumber); conditions: Podosphaera fuliginea, 288 h, cucumber plants sprayed 24 hours before inoculation, scored after 12 days, read-out: % Wirkungsgrad
How it was run: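 Scoring took place 12 days after spore inoculation (100,000 spores/ml, at ca. 20/25° C., 60/70% RH) and was made against plants sprayed without active substance. Inoculation followed by 24 hours a spray of water-diluted acetone/Tween/DMSO compound suspension onto Z10 cotyledon-stage cucumbers.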

Puccinia recondita = test: Example F: in vivo test on Puccinia recondita (wheat brown rust); conditions: 240 h, wheat plants sprayed 24 hours before inoculation, scored after 10 days, read-out: % Wirkungsgrad
Protocol: In Vivo Test on Puccinia Recondita (Wheat Brown Rust) An aqueous suspension of the active substance was prepared by homogenization of a mixture of acetone/Tween/dimethyl sulphoxide and subsequent dilution with water to the desired concentration. Wheat plants (variety: Scipion) are sown in cultivation dishes on a peat-pozzolanic earth substrate (50/50) at 12° C. and sprayed at the first-leaf stage (10 cm size) with the aqueous suspension described above. As a control, plants are sprayed with an aqueous solution with no active substance. After 24 hours the plants are inoculated by spraying with an aqueous suspension of Puccinia recondita spores (100,000 spores per ml). The spores are derived from a 10 day-old infected wheat crop and are suspended in water with 2.5 ml/l Tween. […] After 10 days they are scored in comparison with the control plants.

Sphaerotheca fuliginea [2] = test: Example L: in vivo test on Sphaerotheca fuliginea (powdery mildew on cucumber/protective); conditions: Podosphaera fuliginea, 168 h, cucumber, protective, assessment 7 days after inoculation, read-out: % Wirkungsgrad
How it was run: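 Young cucumber plants sprayed at stated dosage with compound in DMF/alkylaryl polyglycol ether emulsifier diluted in water; inoculated with S. fuliginea spores one day later. Kept in greenhouse at 70% relative humidity, 23° C; protective activity assessed 7 days after inoculation.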

Alternaria solani = test: Example M: in vivo test on Alternaria solani (leaf blotch disease/tomato/protective); conditions: 168 h, tomato, protective, 500 ppm active substance, assessed 7 days after inoculation, read-out: % Wirkungsgrad (activity level)
How it was run: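 Alternaria solani infection on tomato scored 7 days post-inoculation. Before inoculation, young plants received a protective spray at the stated application dose; formulation was compound mixed with N,N-dimethylformamide and emulsifier, water-diluted.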

Botrytis cinerea [3] = test: Example B: in vivo test on Botrytis cinerea (grey mould on cucumbers); conditions: cucumber plants sprayed 24 hours before inoculation, scored after 5-7 days, read-out: % Wirkungsgrad
Protocol: In Vivo Test on Botrytis Cinerea (Grey Mould on Cucumbers) An aqueous suspension of the active substance was prepared by homogenization of a mixture of acetone/Tween/dimethyl sulphoxide and subsequent dilution with water to the desired concentration. Cucumber plants (variety: Vert petit de Paris) are sown in cultivation dishes on a peat-pozzolanic earth substrate (50/50) at 18-20° C. and sprayed at the cotyledon stage Z11 with the aqueous suspension described above. As a control, plants are sprayed with an aqueous solution with no active substance. […] The spores are derived from a 15 day-old culture which are suspended in the following nutrient solution: • 20 g/l gelatine • 50 g/l D-fructose • 2 g/l NH4NO3 • 1 g/l KH2PO4 The inoculated cucumber plants are kept for 5-7 days in a climatic chamber at […] After 5-7 days they are scored in comparison with the control plants.

Alternaria brassicae = test: Example C: in vivo test on Alternaria brassicae (leaf spot disease on radishes); conditions: 500 ppm; radish plants sprayed 24 hours before inoculation; scored after 6-7 days
Protocol: In Vivo Test on Alternaria Brassicae (Leaf Spot Disease on Radishes) An aqueous suspension of the active substance was prepared by homogenization of a mixture of acetone/Tween/dimethyl sulphoxide and subsequent dilution with water to the desired concentration. Radish plants (variety: Pernot) are sown in cultivation dishes on a peat-pozzolanic earth substrate (50/50) at 18-20° C. and sprayed at the cotyledon stage with the aqueous suspension described above. As a control, plants are sprayed with an aqueous solution with no active substance. After 24 hours, the plants are inoculated by spraying with an aqueous suspension of Alternaria brassicae spores (40,000 spores per ml). The spores are derived from a 12 to 13 day-old culture. The inoculated radish plants are incubated for 6-7 days at ca. 18° C. in a humid atmosphere. After 6-7 days they are scored in comparison with the control plants.

[4] = test system: Mycosphaerella graminicola; test: Example G: in vivo test on Mycosphaerella graminicola (wheat leaf blotch disease); conditions: Zymoseptoria tritici, wheat plants sprayed 24 hours before inoculation, scored after 21 to 28 days, read-out: % Wirkungsgrad
How it was run: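 Scipion wheat at first-leaf stage (10 cm) was sprayed with aqueous active-substance suspension, then inoculated 24 hours later with Mycosphaerella graminicola spores (500,000 spores per ml) from 7 day-old culture. Disease was scored after 21 to 28 days against untreated sprayed controls.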

Fusarium graminearum = test: microbe, parasite or virus in culture; assay type: cell-based
[5] = determination of the log P values by HPLC on a reverse phase column (C18), EEC-Directive 79/831 Annex V.A8
Fusarium proliferatum = test: Example I: production of fumonisin FB1 by Fusarium proliferatum (microtitre plates); assay type: cell-based; conditions: 120 h
Aspergillus parasiticus = test: microbe, parasite or virus in culture; assay type: cell-based; conditions: 168 h
Plasmopara viticola = test: Example N: in vivo test on Plasmopara viticola (downy mildew, vine/protective); conditions: 144 h, vine, protective, assessment 6 days after inoculation, read-out: % Wirkungsgrad
How it was run: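 Assessment of downy mildew on vines took place 6 days post-inoculation, after 1 day of moist incubation. Before infection, the young plants received a protective spray of compound emulsified with alkylaryl polyglycol ethers and diluted with water to the stated application rate.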

Venturia inaequalis = test: Example O: in vivo test on Venturia inaequalis (apple scab/protective); conditions: 240 h, protective, assessment 10 days after inoculation, read-out: % Wirkungsgrad
How it was run: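 Young plants received a preventive spray of compound formulated as an emulsifier-containing aqueous dilution at the given application rate, then were inoculated with apple scab fungus. Disease was scored 10 days post-inoculation.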

Botrytis cinerea [6] = test: Example P: in vivo test on Botrytis cinerea (gray mould on bean/protective); conditions: 48 h, bean, protective, 250 ppm active substance, assessed 2 days after inoculation, read-out: % Wirkungsgrad (activity level)
How it was run: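 Infection blotch size on leaves was scored 2 days after placing 2 Botrytis-colonised agar pieces per leaf. Inoculation followed drying of a protective spray applied to young plants at the stated dosage. Spray was prepared by diluting compound with solvent and alkylaryl polyglycol ether emulsifier in water.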

Pyricularia oryzae = test: whole plant or invertebrate; assay type: in vivo; conditions: 120 h, read-out: % Activity level
Cochliobolus miyabeanus = test: Example X: in vivo test on Cochliobolus miyabeanus (brown spot disease, rice/protective); conditions: Bipolaris oryzae, 96 h, read-out: % Activity level
[7] = LogPA (logP of the stated pure compound or, in a mixture, of the main isomer, 1-substituted 3-aryl-1H-pyrazole)
[8] = 72 h, read-out: % Inhibition des Pilzwachstums bei 50 μM
[9] = 168 h, read-out: % Inhibition der DON/AcDON produktion bei 50 μM

In the case of “Mixture of 4-bromo-3-(4-fluorophenyl)-1-isopropyl-1H-pyrazole and 4-bromo-5-(4-fluoro-phenyl)-1-isopropyl-1H-pyrazole [[VI-1]]”, the “logP (pH 2.7)” value (pH 2.7) is reported as 3.96 and the “logP (pH 2.7), minor isomer” value (pH 2.7) is reported as 3.68.

For “4-[3-(4-fluorophenyl)-1-isobutyl-1H-pyrazol-4-yl]-N-isopropylpyrimidin-2-amine [[I-h-1]]”, the “logP (pH 2.7)” value (pH 2.7) was 1.81.

With CC(C)Cn1cc(-c2ccnc3c2C(C)(C)C(=O)N3C)c(-c2ccc(F)cc2)n1 [Compound 148] the “% Activity level” value (Pyricularia grisea) was 71% and the chromatographic logP (physchem; [7]) was 3.68.

Work on CCC(C)n1cc(-c2ccncc2)c(-c2ccc(F)cc2)n1 (centres unmarked) [Compound 91] yielded a pest or weed control at 500 ppm (Peronospora parasitica) of 89%, a pest or weed control at 500 ppm (Sphaerotheca fuliginea [1]) of 88% and a pest or weed control at 500 ppm (Puccinia recondita) of 94%. The “% Activity level” value (Pyricularia grisea) was 75%, the pest or weed control at 500 ppm (Sphaerotheca fuliginea [2]) was 100% and the pest or weed control at 500 ppm (Alternaria solani) was 95%. For the same compound, the chromatographic logP (physchem; [7]) was 1.5.

For CC(C)n1ncc(-c2ccncc2)c1-c1c(F)cccc1F [Compound 10], the pest or weed control at 500 ppm (Peronospora parasitica) was 85%, the pest or weed control at 500 ppm (Botrytis cinerea [3]) was 73% and the “% Activity level” value (Alternaria brassicae) was 85%. For the same compound, the pest or weed control at 500 ppm (Sphaerotheca fuliginea [1]) was 80%, the pest or weed control at 500 ppm [4] was 95% and the chromatographic logP (physchem; [7]) was 1.54.

CCOC(=O)Nc1cc(-c2cn(CC3CC3(Cl)Cl)nc2-c2ccc(F)cc2)ccn1 (centres unmarked) [Compound 264] gave an inhibition at 50 µM (Fusarium graminearum; [8]) of 17%, an inhibition at 50 µM (Fusarium graminearum; [9]) of 99% and a chromatographic logP [5] of 3.37.

For CCC(C)n1cc(-c2ccncc2)c(-c2c(F)cccc2F)n1 (centres unmarked) [Compound 3], the pest or weed control at 500 ppm (Peronospora parasitica) was 97%, the “% Activity level” value (Alternaria brassicae) was 88% and the pest or weed control at 500 ppm (Sphaerotheca fuliginea [1]) was 93%. It also gave a pest or weed control at 500 ppm [4] of 95% and a chromatographic logP (physchem; [7]) of 1.82.

With “N-Benzyl-4-[3-(4-fluorophenyl)-1-isopropyl-1H-pyrazol-4-yl]pyrimidin-2-amine [[I-f-1]]” the “logP (pH 2.7)” value (pH 2.7) was 3.31.

With Cc1cc(F)ccc1-c1c(-c2ccncc2)cnn1C1CCCCO1 (centres unmarked) [[X-5], 4-[5-(4-fluoro-2-methylphenyl)-1-(tetrahydro-2H-pyran-2-yl)-1H-pyrazol-4-yl]pyrid] the “LogP (pH 2.3)” value was 1.40.

In the case of CC(C)Cn1ncc(-c2ccncc2)c1-c1c(F)cccc1F [Compound 2], the pest or weed control at 500 ppm (Peronospora parasitica) is reported as 85%, the pest or weed control at 500 ppm (Botrytis cinerea [3]) is reported as 74% and the “% Activity level” value (Alternaria brassicae) is reported as 77%. It also gave a pest or weed control at 500 ppm (Sphaerotheca fuliginea [1]) of 93%, a pest or weed control at 500 ppm [4] of 98% and a pest or weed control at 500 ppm (Alternaria solani) of 100%. The chromatographic logP (physchem; [7]) was 1.86.

For Cc1cc(-c2c(-c3ccncc3)cnn2C2CCCCO2)ccc1F (centres unmarked) [[X-7], 4-[5-(4-fluoro-3-methylphenyl)-1-(tetrahydro-2H-pyran-2-yl)-1H-pyrazol-4-yl]pyrid], the “LogP (pH 2.3)” value was 1.47.

Compound CCC[CH2][Sn]([CH2]CCC)([CH2]CCC)[c]1c(-c2ccncc2)cnn1C1CCCCO1 (centres unmarked) [[XI-1], 4-[1-(Tetrahydro-2H-pyran-2-yl)-5-(tributylstannyl)-1H-pyrazol-4-yl]pyridine] has a chromatographic logP ([5]; pH 2.7) of 5.09.

For CCOC(=O)Nc1cc(-c2cn(CC(F)F)nc2-c2ccc(F)cc2)ccn1 [Compound 241], the pest or weed control at 500 ppm (Alternaria solani) was 94% and the chromatographic logP [5] was 2.45.

Compound COCC(=O)Nc1cc(-c2cn(C(C)C)nc2-c2ccc(F)cc2)ccn1 [Compound 40] has a pest or weed control at 500 ppm (Peronospora parasitica) of 98%, a pest or weed control at 500 ppm (Botrytis cinerea [3]) of 100% and a pest or weed control at 500 ppm (Sphaerotheca fuliginea [1]) of 100%. It also gave a pest or weed control at 500 ppm (Puccinia recondita) of 86%, a pest or weed control at 500 ppm [4] of 81% and an inhibition at 50 µM (Fusarium proliferatum; Fusarium proliferatum growth, OD 620, 5 days, read-out: % Inhibition des Pilzwachstums bei 50 μM) of 98%. The inhibition at 50 µM (Fusarium proliferatum; Fusarium proliferatum, 5 days at 20° C., HPLC-MS/MS, read-out: % Inhibition der FB1 produktion bei 50 μM) was 100%, the inhibition at 50 µM (Fusarium graminearum; [8]) was 100% and the inhibition at 50 µM (Fusarium graminearum; [9]) was 100%. For the same compound, the inhibition at 50 µM (Aspergillus parasiticus; 50 μM, 7 days at 20° C., read-out: Inhibition der Aflatoxin produktion bei 50 μM) was 99%, the inhibition at 50 µM (Aspergillus parasiticus; read-out: % Inhibition des Pilzwachstums bei 50 μM) was 88% and the pest or weed control at 100 ppm (Plasmopara viticola) was 72%. It also gave a pest or weed control at 100 ppm (Venturia inaequalis) of 97%, a pest or weed control at 250 ppm (Botrytis cinerea [6]) of 100% and a pest or weed control at 250 ppm (Pyricularia oryzae) of 95%. It also gave a pest or weed control at 250 ppm (Cochliobolus miyabeanus) of 85% and a chromatographic logP (physchem; [7]) of 2.59.

For CC(=O)Nc1ccc(-c2c(-c3ccncc3)cnn2C2CCCCO2)cc1 (centres unmarked) [[X-13]], the “LogP (pH 2.3)” value was 0.97.

Work on c1cc(-c2cnn(C3CCCCO3)c2)ccn1 (centres unmarked) [[XII-1], 4-[1-(Tetrahydro-2H-pyran-2-yl)-1H-pyrazol-4-yl]pyridine] yielded a chromatographic logP ([5]; pH 2.7) of 0.38.

Fc1ccc(-c2n[nH]cc2-c2ccncc2)cc1 [[IX-1], 4-[3-(4-Fluorophenyl)-1H-pyrazol-4-yl]pyridine hydrochloride] gave a chromatographic logP ([5]; pH 2.7) of 0.65.

In the case of C#CCn1nc(-c2ccc(F)cc2)c(-c2ccncc2)c1C [Compound 171], the pest or weed control at 500 ppm (Peronospora parasitica) is reported as 91%, the pest or weed control at 500 ppm (Botrytis cinerea [3]) is reported as 71% and the pest or weed control at 500 ppm (Sphaerotheca fuliginea [1]) is reported as 100%. For the same compound, the pest or weed control at 500 ppm (Puccinia recondita) was 94%, the pest or weed control at 500 ppm [4] was 93% and the pest or weed control at 500 ppm (Sphaerotheca fuliginea [2]) was 100%. The pest or weed control at 500 ppm (Alternaria solani) was 95%, the pest or weed control at 250 ppm (Botrytis cinerea [6]) was 84% and the chromatographic logP (physchem; LogPA) was 2.51.
